Results reported in PubChem BioAssay AID2060887 (Molecular Pharmacology Branch, DTP, NCI, 2025).

Tested on: 782815-120-R-J1-PDC complex spheroid viability
Assay: Anticancer human tumor 782815-120-R-J1-PDC patient-derived colon adenocarcinoma cell line growth inhibition [RAS]
Settings: for IC50: curve of first compound; for viability, T/C: stronger effect = lower value
Method in brief: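 Agents were tested in combination matrices in half-log decrements from a top concentration at or near clinical Cmax (10 microM if undetermined). Targets were multi-cell spheroids of tumour lines plus HUVEC and MSC stromal cells.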

[1] = second compound 0.000949 µM, first compound 0.0316 µM
[2] = second compound 0.000949 µM, first compound 0.1 µM
[3] = second compound 0.000949 µM, first compound 0.316 µM
[4] = second compound 0.000949 µM, first compound 1 µM
[5] = second compound 0.003 µM, first compound 0.0316 µM
[6] = second compound 0.003 µM, first compound 0.1 µM
[7] = second compound 0.003 µM, first compound 0.316 µM
[8] = second compound 0.003 µM, first compound 1 µM
[9] = second compound 0.00949 µM, first compound 0.0316 µM
[10] = second compound 0.00949 µM, first compound 0.1 µM
[11] = second compound 0.00949 µM, first compound 0.316 µM
[12] = second compound 0.00949 µM, first compound 1 µM
[13] = second compound 0.03 µM, first compound 0.0316 µM
[14] = second compound 0.03 µM, first compound 0.1 µM
[15] = second compound 0.03 µM, first compound 0.316 µM
[16] = second compound 0.03 µM, first compound 1 µM
[17] = second compound 0.0949 µM, first compound 0.0316 µM
[18] = second compound 0.0949 µM, first compound 0.1 µM
[19] = second compound 0.0949 µM, first compound 0.316 µM
[20] = second compound 0.0949 µM, first compound 1 µM
[21] = second compound 0.3 µM, first compound 0.0316 µM
[22] = second compound 0.3 µM, first compound 0.1 µM
[23] = second compound 0.3 µM, first compound 0.316 µM
[24] = second compound 0.3 µM, first compound 1 µM
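Further: spheroids exposed to compounds for 7 days before reading.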
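Wherever viability, T/C is given: 100% = DMSO vehicle control viability.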

Structure (SMILES): CC(=O)OC12COC1CC(O)C1(C)C(=O)C(O)C3=C(C)C(OC(=O)C(O)C(NC(=O)OC(C)(C)C)c4ccccc4)CC(O)(C(OC(=O)c4ccccc4)C21)C3(C)C (centres undefined) + CCn1c(-c2cc(N3CCN(C)CC3)cnc2C(C)OC)c2c3cc(ccc31)-c1csc(n1)CC(NC(=O)C1CC1C)C(=O)N1CCCC(N1)C(=O)OCC(C)(C)C2
- IC50 (second compound 0.000949 µM): < 31.6 nM
- IC50 (second compound 0.003 µM): < 31.6 nM
- IC50 (second compound 0.00949 µM): < 31.6 nM
- IC50 (second compound 0.03 µM): < 31.6 nM
- IC50 (second compound 0.0949 µM): < 31.6 nM
- IC50 (second compound 0.3 µM): < 31.6 nM
- viability, T/C [1]: 26%
- viability, T/C [2]: 27.8%
- viability, T/C [3]: 23.1%
- viability, T/C [4]: 28.1%
- viability, T/C (second compound 0.000949 µM, first compound 3.16 µM): 27.1%
- viability, T/C (second compound 0.000949 µM, first compound 10 µM): 32.5%
- viability, T/C [5]: 25.8%
- viability, T/C [6]: 24.6%
- viability, T/C [7]: 23.2%
- viability, T/C [8]: 22%
- viability, T/C (second compound 0.003 µM, first compound 3.16 µM): 21.3%
- viability, T/C (second compound 0.003 µM, first compound 10 µM): 25.7%
- viability, T/C [9]: 19.1%
- viability, T/C [10]: 16.4%
- viability, T/C [11]: 15.1%
- viability, T/C [12]: 16.4%
- viability, T/C (second compound 0.00949 µM, first compound 3.16 µM): 19.1%
- viability, T/C (second compound 0.00949 µM, first compound 10 µM): 16.1%
- viability, T/C [13]: 12.5%
- viability, T/C [14]: 13.5%
- viability, T/C [15]: 13.3%
- viability, T/C [16]: 13.3%
- viability, T/C (second compound 0.03 µM, first compound 3.16 µM): 14.8%
- viability, T/C (second compound 0.03 µM, first compound 10 µM): 13.3%
- viability, T/C [17]: 12.6%
- viability, T/C [18]: 12.4%
- viability, T/C [19]: 10.3%
- viability, T/C [20]: 12.2%
- viability, T/C (second compound 0.0949 µM, first compound 3.16 µM): 11.3%
- viability, T/C (second compound 0.0949 µM, first compound 10 µM): 11.3%
- viability, T/C [21]: 13%
- viability, T/C [22]: 12.6%
- viability, T/C [23]: 9.92%
- viability, T/C [24]: 9.28%
- viability, T/C (second compound 0.3 µM, first compound 3.16 µM): 10.9%
- viability, T/C (second compound 0.3 µM, first compound 10 µM): 13%

Structure (SMILES): Nc1ccn(C2OC(CO)C(O)C2(F)F)c(=O)n1 (centres undefined) + CCn1c(-c2cc(N3CCN(C)CC3)cnc2C(C)OC)c2c3cc(ccc31)-c1csc(n1)CC(NC(=O)C1CC1C)C(=O)N1CCCC(N1)C(=O)OCC(C)(C)C2
- IC50 (second compound 0.000949 µM): 20.7 nM
- IC50 (second compound 0.003 µM): 12.7 nM
- IC50 (second compound 0.00949 µM): < 3.16 nM
- IC50 (second compound 0.03 µM): < 3.16 nM
- IC50 (second compound 0.0949 µM): < 3.16 nM
- IC50 (second compound 0.3 µM): < 3.16 nM
- viability, T/C (second compound 0.000949 µM, first compound 0.00316 µM): 74%
- viability, T/C (second compound 0.000949 µM, first compound 0.01 µM): 53.4%
- viability, T/C [1]: 48.6%
- viability, T/C [2]: 35.9%
- viability, T/C [3]: 28.4%
- viability, T/C [4]: 23.6%
- viability, T/C (second compound 0.003 µM, first compound 0.00316 µM): 60.9%
- viability, T/C (second compound 0.003 µM, first compound 0.01 µM): 51.7%
- viability, T/C [5]: 40%
- viability, T/C [6]: 25%
- viability, T/C [7]: 25.5%
- viability, T/C [8]: 23.7%
- viability, T/C (second compound 0.00949 µM, first compound 0.00316 µM): 30.8%
- viability, T/C (second compound 0.00949 µM, first compound 0.01 µM): 33.3%
- viability, T/C [9]: 23.1%
- viability, T/C [10]: 23%
- viability, T/C [11]: 17.1%
- viability, T/C [12]: 18%
- viability, T/C (second compound 0.03 µM, first compound 0.00316 µM): 20.1%
- viability, T/C (second compound 0.03 µM, first compound 0.01 µM): 21.2%
- viability, T/C [13]: 15.7%
- viability, T/C [14]: 13.3%
- viability, T/C [15]: 13.7%
- viability, T/C [16]: 14.1%
- viability, T/C (second compound 0.0949 µM, first compound 0.00316 µM): 15.7%
- viability, T/C (second compound 0.0949 µM, first compound 0.01 µM): 15.9%
- viability, T/C [17]: 13.3%
- viability, T/C [18]: 11.6%
- viability, T/C [19]: 13.2%
- viability, T/C [20]: 10.7%
- viability, T/C (second compound 0.3 µM, first compound 0.00316 µM): 15.7%
- viability, T/C (second compound 0.3 µM, first compound 0.01 µM): 16.1%
- viability, T/C [21]: 16.1%
- viability, T/C [22]: 13.2%
- viability, T/C [23]: 12.6%
- viability, T/C [24]: 10.2%
